From publication PMC4862170, “Genomic screens identify a new phytobacterial microbe-associated molecular pattern and the cognate Arabidopsis receptor-like kinase that mediates its immune elicitation” (Genome Biology, 2016)
Where no end group is shown, it is not given here.

Target: T1, XPS1 ectodomain (Arabidopsis thaliana, UniProt Q9SD62)
T1 construct: The extracellular domain of XPS1 (amino acids 36-650) was cloned by ligation independent cloning; made in house; host or cells: Hi5 insect cells, baculovirus (pMelBac B)
T1 sequence (Q9SD62 36-650): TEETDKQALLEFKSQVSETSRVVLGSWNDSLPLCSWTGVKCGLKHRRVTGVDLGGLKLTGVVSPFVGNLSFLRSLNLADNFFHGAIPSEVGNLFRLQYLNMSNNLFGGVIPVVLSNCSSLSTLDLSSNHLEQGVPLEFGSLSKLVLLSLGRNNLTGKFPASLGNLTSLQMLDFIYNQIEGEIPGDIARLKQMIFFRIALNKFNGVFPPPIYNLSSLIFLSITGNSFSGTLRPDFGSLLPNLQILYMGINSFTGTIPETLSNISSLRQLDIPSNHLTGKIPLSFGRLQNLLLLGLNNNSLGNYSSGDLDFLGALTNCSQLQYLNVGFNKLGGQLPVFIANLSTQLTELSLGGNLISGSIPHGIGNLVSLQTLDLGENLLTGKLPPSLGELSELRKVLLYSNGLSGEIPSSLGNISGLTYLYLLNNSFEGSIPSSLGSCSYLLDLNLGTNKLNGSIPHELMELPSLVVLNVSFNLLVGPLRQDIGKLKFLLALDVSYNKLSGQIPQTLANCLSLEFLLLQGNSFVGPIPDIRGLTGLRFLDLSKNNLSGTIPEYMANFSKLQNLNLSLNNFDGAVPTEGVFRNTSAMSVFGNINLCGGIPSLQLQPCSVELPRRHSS
Test: biochemical
Assay type: binding
Procedure: For XPS1 expression in Hi5 cells, the ectodomain of XPS1 (36-650) was inserted into the baculovirus transfer vector pMelBac B (Invitrogen). The extracellular domain of XPS1 (amino acids 36-650) was cloned by ligation independent cloning between the existing Honey bee melettin signal sequence and the C-terminal Strep II-9x His tag. […] The StrepII-9x His fused XPS1 ectodomain was produced by secreted expression in baculovirus-infected insect cells, harvested 72 h post infection and purified by Ni-NTA affinity chromatography (Qiagen). The samples were processed twice with a Superdex 200 16/60 column (GE Healthcare) pre-equilibrated with 10 mM Bis-Tris pH 6.0, 150 mM NaCl. Protein purity was checked by SDS-PAGE.
The XPS1 ectodomain was kept at a constant concentration (0.5 μM) in a buffer containing 10 mM Bis-Tris pH6, 150 mM NaCl, 5 % glycerol and 0.01 % Tween, whereas varying peptide concentrations were added. Approximately 4–6 μL of each sample was loaded in a fused silica capillary (NanoTemper Technologies). Measurements were performed at room temperature in a Monolith NT.label free instrument at a constant LED power of 20 and MST power of 60 %. Measurements were performed repeatedly on two independent protein preparations to ensure reproducibility. […] Curve fitting was performed by using the NT affinity analysis software from Nanotemper.

Row | Sequence | EC50 of binding to XPS1 ECD (additional replicate (Figure S7), XPS1 ECD 0.5 μM, pH6, MST power 60 %, NT affinity analysis) | Kd (read-out: KD of binding to XPS1 ECD) | Apparent EC50 range of XPS1 for peptide | EC50 | Overall KD of XPS1 binding
1 | QRLSTGSRINSAKDDAAGLQIA [flg22, reference compound] | could not be fitted using the EC50 fit | 13.1 µM | – | – | –
2 | LIPEGKVAVTTTQAATERKPLEQPR [xup25] | – | – | in the high nM range | 0.381 µM | not able to calculate an accurate overall KD
